tested on: HepG2 cells; assay: In vitro inhibition of fatty acid synthesis in HepG2 cells ([14C]-acetate incorporation); type: cell-based, human; conditions: 1 h compound, then 5 h [2-14C]-acetic acid
Protocol: Human liver tumor cells (HepG2 cells) with strong fatty acid synthesis ability were selected. The sample to be tested was added and incubated for 1 hour. Isotope-labeled [^14C]-sodium acetate was added to the cell culture medium and incubated for 5 hours. Then the cells were lysed, and the fatty acid components in the cell were extracted and separated. The relative content of the isotope integrated into the fatty acid was analyzed, so as to detect the inhibitory effect of the compound on fatty acid synthesis in HepG2 cells at different concentrations, and the IC50 value was calculated.
a. HepG2 cells were purchased from the American type culture collection (ATCC) resource bank. Cells were cultured in DMEM (GIBCO) containing 10% fetal bovine serum (GIBCO), penicillin (100 units/mL) and streptomycin (100 μg/mL) (GIBCO), and then incubated in a 37° C. incubator containing 5% carbon dioxide, and passaged once every 2 to 3 days.
b. On the first day, HepG2 cells were inoculated in a 24-well cell culture plate at 2×10^5 per well, and were incubated in a 37° C. incubator containing 5% carbon dioxide.
c. On the fourth day, the medium was changed to that containing the compound. The initial concentration of the compound was 3 μM or 0.3 μM, 3-fold dilution, 8 concentration gradients, and the final concentration of DMSO was 0.5% (v/v). The plate was incubated in a 37° C. incubator containing 5% carbon dioxide for 1 hour. GS-0976 was positive compound control; the reaction system with no compound but DMSO at a final concentration of 0.5% was negative control.
d. 1 μCi [2-^14C]-acetic acid was added to each well, and incubated for 5 hours in a 37° C. incubator containing 5% carbon dioxide.
e. The medium was first transferred to 15 mL centrifuge tubes. 0.5 mL of 0.1 M NaOH was added to each well of cells, and the lysed cell suspension was added to the corresponding 15 mL centrifuge tubes. 1 mL of ethanol and 0.17 mL of 50% KOH were added to each tube, and incubated in a water bath at 90° C. for 1 hour.
f. The sample were taken out and cooled to room temperature, then 5 mL petroleum ether was added to each tube, inverted several times, and centrifuged at 1000 rpm for 5 min. The upper organic phase was discarded and the aqueous phase was kept for fatty acid extraction. 1 mL of concentrated hydrochloric acid (its pH was ensured to be below 1) was added to each tube.
g. 5 mL petroleum ether was added to each tube, invert several times and centrifuged at 1000 rpm for 5 min. 4 mL petroleum ether layer was transferred to a new glass tube (18×180 mm). This step was repeated once.
h. The extracts were collected and placed in a water bath at 64° C. to evaporate for 30 min. Fatty acids were dissolved with 400 μL chloroform/n-hexane (1:1).
i. 50 μL sample were placed in iso-plate (Perkinelmer), 200 μL ULTIMA GOLD (Perkinelmer) was added to each well and incubated for 10 min at room temperature.
j. MicroBeta (Perkinelmer) was used to record the CPM scintillation signal.
The average value of the positive and negative control well and the standard deviation were calculated. IC50 was fitted by using XLFit 5.3.1.3 (2006-2011 ID Business Solutions Limited) with 4-Parameter Logistic Model or Sigmoidal Dose-Response Model:
Y=(Bottom+((Top−Bottom)/(1+((Log IC50/X)^Hillslope)))),
wherein X is the logarithm of the compound concentration, Y is CPM (count per minute); Top and Bottom are the Y values at the highest and lowest plateau of the curve; Hillslope is the Hill constant.

`COc1ccccc1C(CN1C(=O)C2(CCC(C(=O)O)C2)C(=O)c2c1sc(-c1ncco1)c2C)OC1CCOCC1` (mixture of isomers) [Compound 5y, 7′-(2-(2-methoxyphenyl)-2-((tetrahydro-2H-pyran-4-yl)oxy)ethyl)-3′-methyl-2′-(oxazol-2-yl)-4′,6′-dioxo-6′,7′-dihydro-4′H-spiro[cyclopentane-1,5′-thieno[2,3-b]pyridine]-3-carboxylic Acid] gave an IC50 of under 50 nM.

same assay, conditions: Homo sapiens, HepG2, 1 h compound, then 5 h [2-14C]-acetic acid

First: COc1ccccc1C(CN1C(=O)C2(CCC(C(=O)O)C2)C(=O)c2c1sc(-c1ncco1)c2C)OC1CCOCC1 (mixture of isomers) [Compound 5x, 7′-(2-(2-methoxyphenyl)-2-((tetrahydro-2H-pyran-4-yl)oxy)ethyl)-3′-methyl-2′-(oxazol-2-yl)-4′,6′-dioxo-6′,7′-dihydro-4′H-spiro[cyclopentane-1,5′-thieno[2,3-b]pyridine]-3-carboxylic Acid]
Second: COc1ccccc1C(CN1C(=O)C2(CC(C(=O)O)C2)C(=O)c2c1sc(-c1ncco1)c2C)OC1CCOCC1 (mixture of isomers) [Compound 8, 7′-(2-(2-methoxyphenyl)-2-((tetrahydro-2H-pyran-4-yl)oxy)ethyl)-3′-methyl-2′-(oxazol-2-yl)-4′,6′-dioxo-6′,7′-dihydro-4′H-spiro[cyclobutane-1,5′-thieno[2,3-b]pyridine]-3-carboxylic Acid]
The IC50 of the first is higher: 50 to 500 nM for the first, under 50 nM for the second.

`COc1ccccc1C(CN1C(=O)C2(CCC(C(=O)O)C2)C(=O)c2c1sc(-c1ncco1)c2C)OC1CCOCC1` (single isomer, unassigned) [Compound 5b, 7′-(2-(2-methoxyphenyl)-2-((tetrahydro-2H-pyran-4-yl)oxy)ethyl)-3′-methyl-2′-(oxazol-2-yl)-4′,6′-dioxo-6′,7′-dihydro-4′H-spiro[cyclopentane-1,5′-thieno[2,3-b]pyridine]-3-carboxylic Acid] and `COc1ccccc1C(CN1C(=O)C2(CC(C(=O)O)C2)C(=O)c2c1sc(-c1ncco1)c2C)OC1CCOCC1` (single isomer, unassigned) [Compound 8d, 7′-(2-(2-methoxyphenyl)-2-((tetrahydro-2H-pyran-4-yl)oxy)ethyl)-3′-methyl-2′-(oxazol-2-yl)-4′,6′-dioxo-6′,7′-dihydro-4′H-spiro[cyclobutane-1,5′-thieno[2,3-b]pyridine]-3-carboxylic Acid] cannot be ordered by IC50: under 50 nM for the first, under 50 nM for the second.

Compound `COc1ccccc1[C@H](CN1c2sc(-c3ncco3)c(C)c2C(=O)[C@]2(C[C@H](C(=O)O)C2)C1=O)OC1CCOCC1` [Compound 8c, 7′-(2-(2-methoxyphenyl)-2-((tetrahydro-2H-pyran-4-yl)oxy)ethyl)-3′-methyl-2′-(oxazol-2-yl)-4′,6′-dioxo-6′,7′-dihydro-4′H-spiro[cyclobutane-1,5′-thieno[2,3-b]pyridine]-3-carboxylic Acid] has an IC50 of under 50 nM.
